The subject of this assay is iPS cell 201B7 strain. In words: iPS cell proliferation system (cell number). The note with it: matrigel, Essential-8 medium. The format is cell-based, human. Here is the method:
The cell proliferation effect of various test compounds was evaluated using artificial pluripotent stem cell (iPS cell). 201B7 strain purchased from iPS Academia Japan, Inc. was grown in a culture container coated with a basal lamina matrix (matrigel manufactured by Nippon Becton Dickinson Company, Ltd., or a fragment containing an active domain of laminin 511 purchased from OSAKA UNIVERSITY) (Becton, Dickinson and Company, Falcon culture petri dish or Falcon culture plate), contained in a feeder-free medium for human ES/iPS cell (ReproCELL Inc, ReproFF2).
In this medium were suspended iPS cells in colony state, and a 2.5- to 3.5-fold diluted amount of the original culture was plated on a 6-well culture plate coated with a basal lamina matrix (Nippon Becton Dickinson Company, Ltd., Falcon culture plate). […] After culturing for 6 to 12 days, the medium was removed, the cells were detached from the culture plate by a trypsin-EDTA (Sigma-Aldrich Ltd.) or TrypLE Select (Invitrogen) treatment and the cell number was measured. The cell number was measured by the method described in “Kaitei Saibou baiyou Nyuumon Note, page 77-83, 2010, YODOSHA CO., LTD.” which is incorporated herein by reference in its entirety.
When the cells were seeded in a dissociation state of the cells (single cell state), a test compound solution after filter sterilization was added to a medium containing Y-27632 (Nacalai Tesque) to a given concentration, and dispensed to a 6 well culture plate. Thereto were plated iPS cells suspended in a medium containing Y-27632 at 100,000 cells/well, and cultured for 6 to 8 days. On the next day of seeding, the medium was exchanged to a medium (without Y-27632) added with the test compound alone. When medium exchange was necessary, the medium was exchanged every 2 or 3 days. […] After culturing for 6 to 8 days, the cell number was measured by a method similar to that mentioned above.
When the evaluation was performed in Essential 8 medium (Invitrogen), which is a different feeder-free medium for iPS cell, iPS cells cultured in a medium obtained by adding human serum albumin (Sigma-Aldrich Co. LLC) to Essential 8 medium were used.

In the case of `O=S(=O)([O-])OC[C@H]1O[C@@](COS(=O)(=O)[O-])(O[C@H]2O[C@H](COS(=O)(=O)[O-])[C@@H](OS(=O)(=O)[O-])[C@H](OS(=O)(=O)[O-])[C@H]2OS(=O)(=O)[O-])[C@@H](OS(=O)(=O)[O-])[C@@H]1OS(=O)(=O)[O-].[K+].[K+].[K+].[K+].[K+].[K+].[K+].[K+]` [sucrose 8SO3K], the “number of cells relative to control” value was “◯ (not less than 100%: ◯)” (test compound 25 ng/ml) and “◯ (not less than 100%: ◯)” (test compound 250 ng/ml).
